From ChEMBL document CHEMBL4665744, “Diverse Types of Diterpenoids with an Aromatized C Ring from the Twigs of Podocarpus imbricatus” (J Nat Prod, 2020) come the findings set out here.

The source made the active and inactive calls. The calls are words filed in the database; no cut-off is given here.

The IC50 is the concentration needed to halve the response being measured. A word on the CC50: it is the concentration that lowers cell viability or growth by half.

In one data set the test system is Zika virus. The data set can be described thus: Antiviral activity against Zika virus. Format: functional, organism-based.
A short description of data set [1]: Cytotoxicity activity against African green monkey Vero cells assessed as reduction in cell viability by MTT assay. Type of data set: cell-based. The conditions noted are these: chlorocebus sabaeus. For orientation: Formazan colour is commonly taken as a measure of viable cells.

In the case of `CC(C)c1cc2c(cc1O)[C@@H](O)[C@@H](O)[C@H]1[C@](C)(CO)CCC[C@]21C`, the IC50 in the data set on Zika virus stood at 2.5 µM. Turning to `C[C@H](CO)c1cc2c(cc1O)[C@@]1(C)CCC[C@](C)(C(=O)O)[C@@H]1CC2`, in the data set on Zika virus, the result was inactive. `COc1c(C)c2c(c(O)c1C/C=C(\C)CCC(=O)O)C(=O)OC2` [MYCOPHENOLIC ACID]: the CC50 in data set [1] turned out to be 18.7 µM. As to `CC(C)c1c(O)ccc2c1CC[C@H]1C(C)(C)CC[C@@H](O)[C@]21C`, in the data set on Zika virus, the outcome was inactive. The same measure, in the same setting: the result for `CC(C)c1cc2c(cc1O)C[C@@H](O)[C@H]1[C@](C)(CO)CCC[C@]21C` reads “inactive”.
